In the experiment the test system is IDDM associated autoantibodies in sera. The experiment is described as follows: ELISA of sera on plate-bound human GAD65 peptides. Type of experiment: binding. The conditions noted are these: for controls whose sera recognized the peptide / number of control sera positive (X) for the peptide (unlabelled sum line): 13 control sera; for number of IDDM (at risk, pre-IDDM, at onset) patients positive (X) for the peptide (unlabelled sum line): IDDM sera of Table 11; for patients whose sera recognized the peptide: patients previously shown to be 64K positive. The procedure: Patient sera and most control sera were those used in a previous study (Kaufman, et al., J. Clin. Investigation, supra) All samples were coded and tested in a blind manner. Peptides were synthesized using an automatic instrument (Applied Biosystems, Foster City, Calif.) and standard conditions. Peptides were dissolved in 60 mM sodium bicarbonate buffer (pH 9.6) at 20 ug/ml and 100 ul of each was added to duplicated wells of a 96 well Nunc-Immuno Plate. Peptides were allowed to bind at 4° C. overnight. The plates were then washed three times with PBS+0.1% Tween 20 (wash buffer), after which the plates were pre-absorbed with 3% BSA in sodium bicarbonate buffer for 0.5 hours at 37° C., or at room temperature overnight. The plates were then washed 5 times with the above wash buffer. 100 ul of serum at a 1/300 dilution in PBS+0.1% Tween 20 and 1% BSA was added to each well and antibodies were allowed to bind for 1 hour at 37° C. The plates were washed 5 times with wash buffer. 100 ul of a 1/600 dilution of HRP-goat anti-human IgG (BRL, Gaithersberg, Md.) was added to each well and allowed to bind for 1 hour at 37° C. The plates were then washed 7 times and 100 ul of substrate buffer was added to each well for 30 minutes at room temperature. The color development was measured at 410 nm using an ELISA plate reader (ICN, Biomedicals, Costa Mesa, Calif.). Positive sera were defined as: OD410 of the sample/negative control ≧3.0.

[1] abbreviates: IDDM At Onset serum 291, 1/300 dilution.
The mark [2] stands for this setting: Pre-IDDM serum J.B. (2), 1/300 dilution.
Where [3] appears, read: Pre-IDDM serum P.T. (2), 1/300 dilution.
Where [4] appears, read: IDDM At Onset serum 048, 1/300 dilution.
Setting [5] is: IDDM At Onset serum 705, 1/300 dilution.
[6] abbreviates: IDDM At Onset serum S.H., 1/300 dilution.
[7] abbreviates: IDDM At Risk serum 356, 1/300 dilution.
Setting [8] is: Pre-IDDM serum 723, 1/300 dilution.
The mark [9] stands for this setting: Pre-IDDM serum P.T. (1), 1/300 dilution.
Where [10] appears, read: Pre-IDDM serum R.S. (1), 1/300 dilution.
Where [11] appears, read: Pre-IDDM serum R.S. (2), 1/300 dilution.
[12] abbreviates: control serum S.M., 1/300 dilution.
The mark [13] stands for this setting: IDDM At Risk serum L.I., 1/300 dilution.
Setting [14] is: IDDM At Risk serum 052, 1/300 dilution.

Ten sequences from patent US8926966B1 (Regents of the University of California, priority 1990, dated 2015) can be followed below.

On to HATDLLPACDGERPTLAFLQ [Peptide 7], for which the “immunoreactivity of serum with GAD65 peptide” value (shortened to “immunoreactivity of serum”) is given as “b (b = borderline response (00/background ?2.5-2.9).)” under setting [1]; “b (b = borderline response (00/background ?2.5-2.9).)” (Pre-IDDM serum J.B. (1), 1/300 dilution); “b (b = borderline response (00/background ?2.5-2.9).)” under setting [2]; “b (b = borderline response (00/background ?2.5-2.9).)” under setting [3].
Regarding GLLMSRKHKLSGVERANS [Peptide 25], the “controls whose sera recognized the peptide” value is recorded as 1 out of 13; the “number of control sera positive (X) for the peptide (unlabelled sum line)” value is recorded as 1; the “number of IDDM (at risk, pre-IDDM, at onset) patients positive (X) for the peptide (unlabelled sum line)” value (“number of IDDM” for short) worked out at 8; the “patients whose sera recognized the peptide” value was 6/8. Moreover, under setting [4], the “immunoreactivity of serum” value is reported as “X (X = positive for immunoreactivity as defined by 00/background^3.0)”. Also, the “immunoreactivity of serum” value under setting [1] is recorded as “X (X = positive for immunoreactivity as defined by 00/background^3.0)”. Under setting [5], the “immunoreactivity of serum” value was “X (X = positive for immunoreactivity as defined by 00/background^3.0)”. For the same sequence, the “immunoreactivity of serum” value under setting [6] is “X (X = positive for immunoreactivity as defined by 00/background^3.0)”. The “immunoreactivity of serum” value under setting [7] is listed as “X (X = positive for immunoreactivity as defined by 00/background^3.0)”. Under “IDDM At Risk serum 825, 1/300 dilution”, the “immunoreactivity of serum” value is on record as “b (b = borderline response (00/background ?2.5-2.9).)”. Moreover, the “immunoreactivity of serum” value under setting [8] is on record as “X (X = positive for immunoreactivity as defined by 00/background^3.0)”. For the same sequence, the “immunoreactivity of serum” value under setting [2] is recorded as “b (b = borderline response (00/background ?2.5-2.9).)”. The “immunoreactivity of serum” value under setting [9] is recorded as “b (b = borderline response (00/background ?2.5-2.9).)”. The “immunoreactivity of serum” value under setting [3] is “X (X = positive for immunoreactivity as defined by 00/background^3.0)”. The “immunoreactivity of serum” value under setting [10] is recorded as “X (X = positive for immunoreactivity as defined by 00/background^3.0)”. Also, the “immunoreactivity of serum” value under setting [11] is reported as “X (X = positive for immunoreactivity as defined by 00/background^3.0)”. Moreover, the “immunoreactivity of serum” value (control serum FA12, 1/300 dilution) is “b (b = borderline response (00/background ?2.5-2.9).)”. For the same sequence, the “immunoreactivity of serum” value under setting [12] is “X (X = positive for immunoreactivity as defined by 00/background^3.0)”.
On to QKFTGGIGIGNKLCALLYGD [Peptide 3], for which the “immunoreactivity of serum” value is listed as “X (X = positive for immunoreactivity as defined by 00/background^3.0)” under setting [4]; “b (b = borderline response (00/background ?2.5-2.9).)” under setting [1]; “X (X = positive for immunoreactivity as defined by 00/background^3.0)” under setting [6]; “b (b = borderline response (00/background ?2.5-2.9).)” under setting [13]; “X (X = positive for immunoreactivity as defined by 00/background^3.0)” under setting [8].
AALGIGTDSVILIKCDERGK [Peptide 20]: the “controls whose sera recognized the peptide” value is listed as “none”; the “number of IDDM” value was found to be 7; the “patients whose sera recognized the peptide” value is reported as 6/8. Further, the “immunoreactivity of serum” value under setting [4] was “X (X = positive for immunoreactivity as defined by 00/background^3.0)”. Moreover, under setting [1], the “immunoreactivity of serum” value is recorded as “X (X = positive for immunoreactivity as defined by 00/background^3.0)”. The “immunoreactivity of serum” value under setting [5] is listed as “X (X = positive for immunoreactivity as defined by 00/background^3.0)”. For the same sequence, the “immunoreactivity of serum” value under setting [6] is listed as “X (X = positive for immunoreactivity as defined by 00/background^3.0)”. Besides, the “immunoreactivity of serum” value under setting [14] is reported as “X (X = positive for immunoreactivity as defined by 00/background^3.0)”. In addition, the “immunoreactivity of serum” value under setting [13] is “b (b = borderline response (00/background ?2.5-2.9).)”. The “immunoreactivity of serum” value under setting [8] is on record as “X (X = positive for immunoreactivity as defined by 00/background^3.0)”.
In the case of TNMFTYEIAPVFVLLEYVTL [Peptide 14], the “immunoreactivity of serum” value under setting [14] was “b (b = borderline response (00/background ?2.5-2.9).)”.
On to SFDRSTKVIDFHYPNELLQE [Peptide 9], for which the “immunoreactivity by both control and patient sera” value was “often positive”; the “number of control sera positive (X) for the peptide (unlabelled sum line)” value is reported as 2; the “number of IDDM” value came out at 3. Under setting [4], the “immunoreactivity of serum” value was “X (X = positive for immunoreactivity as defined by 00/background^3.0)”. In addition, under setting [14], the “immunoreactivity of serum” value is given as “b (b = borderline response (00/background ?2.5-2.9).)”. Moreover, the “immunoreactivity of serum” value under setting [7] is “X (X = positive for immunoreactivity as defined by 00/background^3.0)”. Also, the “immunoreactivity of serum” value under setting [8] is “X (X = positive for immunoreactivity as defined by 00/background^3.0)”. Besides, the “immunoreactivity of serum” value under setting [9] is “b (b = borderline response (00/background ?2.5-2.9).)”. Moreover, the “immunoreactivity of serum” value under setting [3] is listed as “b (b = borderline response (00/background ?2.5-2.9).)”. For the same sequence, the “immunoreactivity of serum” value under setting [10] is on record as “b (b = borderline response (00/background ?2.5-2.9).)”. Also, under setting [11], the “immunoreactivity of serum” value is “b (b = borderline response (00/background ?2.5-2.9).)”. The “immunoreactivity of serum” value (control serum 4380, 1/300 dilution) is recorded as “b (b = borderline response (00/background ?2.5-2.9).)”. Besides, the “immunoreactivity of serum” value (control serum 5620, 1/300 dilution) was “b (b = borderline response (00/background ?2.5-2.9).)”. The “immunoreactivity of serum” value (control serum 5748, 1/300 dilution) is given as “b (b = borderline response (00/background ?2.5-2.9).)”. Besides, the “immunoreactivity of serum” value (control serum A.P., 1/300 dilution) is “X (X = positive for immunoreactivity as defined by 00/background^3.0)”. In addition, the “immunoreactivity of serum” value under setting [12] is “X (X = positive for immunoreactivity as defined by 00/background^3.0)”.
Regarding KPCSCSKVDVNYAFLHATDL [Peptide 6], the “number of IDDM” value was 2. In addition, the “immunoreactivity of serum” value under setting [4] is given as “X (X = positive for immunoreactivity as defined by 00/background^3.0)”. Further, the “immunoreactivity of serum” value under setting [14] was “X (X = positive for immunoreactivity as defined by 00/background^3.0)”. The “immunoreactivity of serum” value under setting [11] is given as “b (b = borderline response (00/background ?2.5-2.9).)”.
Take ATHQDIDFLIEEIERLGQDL [Peptide 38]: the “number of IDDM” value is listed as 1. In addition, under setting [4], the “immunoreactivity of serum” value is “X (X = positive for immunoreactivity as defined by 00/background^3.0)”. The “immunoreactivity of serum” value under setting [6] is listed as “b (b = borderline response (00/background ?2.5-2.9).)”. Besides, under setting [14], the “immunoreactivity of serum” value was “b (b = borderline response (00/background ?2.5-2.9).)”.
As for KGTTGFEAHVDKCLELAEYLYN [Peptide 31], the “immunoreactivity of serum” value runs as follows: under setting [14], “b (b = borderline response (00/background ?2.5-2.9).)”; under setting [9], “b (b = borderline response (00/background ?2.5-2.9).)”; under setting [3], “b (b = borderline response (00/background ?2.5-2.9).)”.
LEAKQKGFVPFLVSATAGTT [Peptide 22]: the “number of IDDM” value stood at 2. In addition, the “immunoreactivity of serum” value under setting [1] is reported as “X (X = positive for immunoreactivity as defined by 00/background^3.0)”. In addition, the “immunoreactivity of serum” value under setting [5] was “X (X = positive for immunoreactivity as defined by 00/background^3.0)”. The “immunoreactivity of serum” value under setting [2] is given as “b (b = borderline response (00/background ?2.5-2.9).)”. Further, the “immunoreactivity of serum” value under setting [3] is reported as “b (b = borderline response (00/background ?2.5-2.9).)”.
